Assay results published in ChEMBL document CHEMBL4507307 (2021).
Each block holds one compound with its values, some of them ahead of it.

Key:
[1] = target: Muscarinic acetylcholine receptor M1 (Homo sapiens, UniProt P11229); assay: GPCRScan assay: inhibition of M1; parameters: radioligand conc. used [nm] 0.3 – 1.2, parental cells stable CHO
Mu-type opioid receptor = Mu-type opioid receptor (Homo sapiens, UniProt P35372); assay: GPCRScan assay: inhibition of MOR; parameters: radioligand conc. used [nm] 1.0 – 2.0, parental cells stable HEK
[2] = target: 5-hydroxytryptamine receptor 1B (Homo sapiens, UniProt P28222); assay: GPCRScan assay: inhibition of 5-HT1B; parameters: radioligand conc. used [nm] 0.6 – 1.5, parental cells stable HEK
D(1A) dopamine receptor = D(1A) dopamine receptor (Homo sapiens, UniProt P21728); assay: GPCRScan assay: inhibition of D1; parameters: radioligand conc. used [nm] 0.6 – 1.3, parental cells HEKT
[3] = target: 5-hydroxytryptamine receptor 1A (Homo sapiens) (UniProt P08908); details: Compound concentration 10.0 uM
[4] = target: 5-hydroxytryptamine receptor 6 (Homo sapiens) (UniProt P50406); details: Compound concentration 10.0 uM
[5] = target: 5-hydroxytryptamine receptor 2A (Homo sapiens, UniProt P28223); assay: GPCRScan assay: inhibition of 5-HT2A; parameters: radioligand conc. used [nm] 1.2 – 2.4, parental cells HEKT
5-hydroxytryptamine receptor 2A, sequence (P28223 whole entry): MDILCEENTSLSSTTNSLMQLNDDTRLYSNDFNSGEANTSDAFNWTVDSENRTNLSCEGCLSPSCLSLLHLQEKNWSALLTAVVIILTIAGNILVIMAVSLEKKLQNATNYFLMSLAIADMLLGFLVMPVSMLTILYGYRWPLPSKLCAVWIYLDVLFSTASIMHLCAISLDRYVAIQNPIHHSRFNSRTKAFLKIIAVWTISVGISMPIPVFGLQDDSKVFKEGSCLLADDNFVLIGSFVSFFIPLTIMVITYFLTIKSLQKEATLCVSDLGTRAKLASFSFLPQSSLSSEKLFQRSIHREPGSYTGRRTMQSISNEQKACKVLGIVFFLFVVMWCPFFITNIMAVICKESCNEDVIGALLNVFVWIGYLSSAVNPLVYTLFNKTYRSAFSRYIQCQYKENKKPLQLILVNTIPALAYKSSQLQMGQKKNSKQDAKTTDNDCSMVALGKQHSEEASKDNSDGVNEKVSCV

[6] = target: Sigma non-opioid intracellular receptor 1 (Homo sapiens, UniProt Q99720); assay: GPCRScan assay: inhibition of Sigma 1; parameters: radioligand conc. used [nm] 4.0 – 5.0, parental cells HEKT
Sigma non-opioid intracellular receptor 1, sequence (Q99720 whole entry): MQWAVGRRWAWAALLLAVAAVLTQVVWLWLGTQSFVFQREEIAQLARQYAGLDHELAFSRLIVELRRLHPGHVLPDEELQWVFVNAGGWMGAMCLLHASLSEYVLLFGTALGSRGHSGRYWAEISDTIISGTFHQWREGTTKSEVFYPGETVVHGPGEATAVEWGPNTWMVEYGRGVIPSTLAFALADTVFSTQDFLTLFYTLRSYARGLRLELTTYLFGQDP

[7] = target: 5-hydroxytryptamine receptor 5A (Homo sapiens, UniProt P47898); assay: GPCRScan assay: inhibition of 5-HT5A; parameters: radioligand conc. used [nm] 2.0 - 3.3, parental cells Flp-In CHO
5-hydroxytryptamine receptor 5A, sequence (P47898 whole entry): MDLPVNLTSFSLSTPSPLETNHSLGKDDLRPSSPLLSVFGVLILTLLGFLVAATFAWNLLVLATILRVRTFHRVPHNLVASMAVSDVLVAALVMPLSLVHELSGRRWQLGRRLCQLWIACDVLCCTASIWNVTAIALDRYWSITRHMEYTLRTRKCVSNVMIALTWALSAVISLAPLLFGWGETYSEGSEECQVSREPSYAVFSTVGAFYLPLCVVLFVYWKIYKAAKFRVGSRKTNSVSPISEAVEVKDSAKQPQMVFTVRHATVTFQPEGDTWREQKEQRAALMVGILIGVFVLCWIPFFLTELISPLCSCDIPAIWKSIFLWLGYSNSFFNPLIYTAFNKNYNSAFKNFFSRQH

[8] = target: 5-hydroxytryptamine receptor 2C (Homo sapiens, UniProt P28335); assay: GPCRScan assay: inhibition of 5-HT2C; parameters: radioligand conc. used [nm] 1.0 – 2.5, parental cells HEK T
[9] = target: Serine/threonine-protein kinase Nek2 (Homo sapiens) (UniProt P51955); assay: NEK2 Kinase activity screen
[10] = target: Mitogen-activated protein kinase 11 (Homo sapiens) (UniProt Q15759); assay: MAPK11 (p38 beta) Kinase activity screen
[11] = target: Serine/threonine-protein kinase pim-1 (Homo sapiens) (UniProt P11309); assay: PIM1 Kinase activity screen
[12] = target: AMP-activated protein kinase (AMPK) alpha-1/beta-1/gamma-1 (Homo sapiens) (UniProt P54619+Q9Y478+Q13131); assay: AMPK A1/B1/G1 Kinase activity screen; assay type: protein-complex assay
AMP-activated protein kinase (AMPK) alpha-1/beta-1/gamma-1 (Homo sapiens), sequence (P54619 whole entry): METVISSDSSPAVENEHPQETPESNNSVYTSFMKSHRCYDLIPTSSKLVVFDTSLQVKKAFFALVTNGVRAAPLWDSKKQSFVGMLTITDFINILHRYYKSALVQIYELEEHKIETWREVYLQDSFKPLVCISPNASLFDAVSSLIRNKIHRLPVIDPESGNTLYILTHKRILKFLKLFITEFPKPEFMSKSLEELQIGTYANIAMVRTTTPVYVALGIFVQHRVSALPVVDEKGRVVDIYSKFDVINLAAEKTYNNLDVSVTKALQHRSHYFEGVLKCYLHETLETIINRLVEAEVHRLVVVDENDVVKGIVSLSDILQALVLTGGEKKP
AMP-activated protein kinase (AMPK) alpha-1/beta-1/gamma-1 (Homo sapiens), sequence (Q13131 whole entry partner): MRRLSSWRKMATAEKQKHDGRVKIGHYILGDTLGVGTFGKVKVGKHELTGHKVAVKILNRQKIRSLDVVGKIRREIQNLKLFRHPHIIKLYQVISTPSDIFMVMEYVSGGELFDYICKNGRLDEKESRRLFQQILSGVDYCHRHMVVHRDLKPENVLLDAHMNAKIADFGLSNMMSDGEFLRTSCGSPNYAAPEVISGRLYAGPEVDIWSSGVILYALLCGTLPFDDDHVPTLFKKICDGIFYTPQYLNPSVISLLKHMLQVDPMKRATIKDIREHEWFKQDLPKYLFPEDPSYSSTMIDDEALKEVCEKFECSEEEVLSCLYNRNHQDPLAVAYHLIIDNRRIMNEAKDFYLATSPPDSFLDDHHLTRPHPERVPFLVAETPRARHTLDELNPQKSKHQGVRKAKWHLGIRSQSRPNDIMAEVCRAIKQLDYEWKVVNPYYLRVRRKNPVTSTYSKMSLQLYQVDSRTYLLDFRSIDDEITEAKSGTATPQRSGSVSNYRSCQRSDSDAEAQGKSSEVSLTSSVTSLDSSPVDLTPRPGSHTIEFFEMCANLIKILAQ
AMP-activated protein kinase (AMPK) alpha-1/beta-1/gamma-1 (Homo sapiens), sequence (Q9Y478 2-270 partner limits assumed): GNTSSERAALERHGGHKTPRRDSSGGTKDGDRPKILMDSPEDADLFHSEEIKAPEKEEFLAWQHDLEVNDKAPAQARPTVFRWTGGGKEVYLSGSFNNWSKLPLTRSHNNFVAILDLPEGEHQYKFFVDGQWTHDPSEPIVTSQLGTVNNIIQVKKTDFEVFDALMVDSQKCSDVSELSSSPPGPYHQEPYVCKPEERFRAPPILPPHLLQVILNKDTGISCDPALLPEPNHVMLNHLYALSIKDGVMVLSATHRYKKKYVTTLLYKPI

[13] = target: SRSF protein kinase 2 (Homo sapiens) (UniProt P78362); assay: SRPK2 Kinase activity screen
[14] = target: Serine/threonine-protein kinase Chk2 (Homo sapiens) (UniProt O96017); assay: CHEK2 (CHK2) Kinase activity screen
Serine/threonine-protein kinase Chk2 (Homo sapiens), sequence (O96017 whole entry): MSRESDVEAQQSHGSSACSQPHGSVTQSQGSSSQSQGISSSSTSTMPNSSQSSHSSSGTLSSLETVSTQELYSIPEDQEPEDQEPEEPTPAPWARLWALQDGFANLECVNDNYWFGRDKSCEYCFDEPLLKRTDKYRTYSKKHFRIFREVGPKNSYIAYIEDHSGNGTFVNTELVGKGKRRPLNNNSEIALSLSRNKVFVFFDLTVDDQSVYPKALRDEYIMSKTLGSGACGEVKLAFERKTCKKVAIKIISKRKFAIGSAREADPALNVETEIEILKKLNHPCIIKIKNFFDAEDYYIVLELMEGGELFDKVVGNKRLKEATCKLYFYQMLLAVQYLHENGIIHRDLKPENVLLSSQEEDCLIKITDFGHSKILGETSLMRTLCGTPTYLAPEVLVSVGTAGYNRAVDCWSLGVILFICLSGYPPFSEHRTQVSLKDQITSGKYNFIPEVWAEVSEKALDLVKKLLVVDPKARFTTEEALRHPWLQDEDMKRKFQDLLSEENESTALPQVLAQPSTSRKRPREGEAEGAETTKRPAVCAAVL

[15] = target: Proto-oncogene tyrosine-protein kinase ROS (Homo sapiens) (UniProt P08922); assay: ROS1 Kinase activity screen
[16] = target: Casein kinase I isoform alpha (Homo sapiens) (UniProt P48729); assay: CSNK1A1 (CK1 alpha 1) Kinase activity screen
[17] = target: Tyrosine-protein kinase JAK1 (Homo sapiens) (UniProt P23458); assay: JAK1 Kinase activity screen; details: Compound concentration 0.1 uM
[18] = target: Inhibitor of nuclear factor kappa-B kinase subunit beta (Homo sapiens) (UniProt O14920); assay: IKBKB (IKK beta) Kinase activity screen
Inhibitor of nuclear factor kappa-B kinase subunit beta (Homo sapiens), sequence (O14920 whole entry): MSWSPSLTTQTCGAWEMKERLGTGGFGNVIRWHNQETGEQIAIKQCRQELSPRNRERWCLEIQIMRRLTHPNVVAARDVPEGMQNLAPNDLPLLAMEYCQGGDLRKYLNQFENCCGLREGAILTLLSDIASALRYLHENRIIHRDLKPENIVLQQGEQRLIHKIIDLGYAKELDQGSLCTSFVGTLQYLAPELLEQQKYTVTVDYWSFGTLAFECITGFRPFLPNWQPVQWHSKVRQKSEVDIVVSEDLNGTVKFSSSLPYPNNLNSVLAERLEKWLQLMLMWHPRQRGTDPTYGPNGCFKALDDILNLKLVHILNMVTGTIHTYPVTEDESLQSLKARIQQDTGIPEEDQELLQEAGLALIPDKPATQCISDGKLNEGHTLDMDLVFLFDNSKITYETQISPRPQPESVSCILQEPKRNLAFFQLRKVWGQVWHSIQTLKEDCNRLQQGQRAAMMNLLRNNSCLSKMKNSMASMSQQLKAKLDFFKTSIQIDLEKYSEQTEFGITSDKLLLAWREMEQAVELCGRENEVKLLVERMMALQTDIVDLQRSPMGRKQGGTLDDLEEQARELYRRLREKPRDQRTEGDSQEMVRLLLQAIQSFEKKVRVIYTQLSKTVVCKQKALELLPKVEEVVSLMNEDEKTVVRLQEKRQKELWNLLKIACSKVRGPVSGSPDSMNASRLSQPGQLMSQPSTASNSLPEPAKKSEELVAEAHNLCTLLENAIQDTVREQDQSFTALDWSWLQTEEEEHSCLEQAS

[19] = target: Glycogen synthase kinase-3 beta (Homo sapiens) (UniProt P49841); assay: GSK3B (GSK3 beta) Kinase activity screen
[20] = target: MAP kinase-activated protein kinase 2 (Homo sapiens) (UniProt P49137); assay: MAPKAPK2 Kinase activity screen
[21] = target: Ribosomal protein S6 kinase beta-1 (Homo sapiens) (UniProt P23443); assay: RPS6KB1 (p70S6K) Kinase activity screen
[22] = target: Rho-associated protein kinase 1 (Homo sapiens) (UniProt Q13464); assay: ROCK1 Kinase activity screen
[23] = target: Ephrin type-B receptor 1 (Homo sapiens) (UniProt P54762); assay: EPHB1 Kinase activity screen
[24] = target: Casein kinase I isoform delta (Homo sapiens) (UniProt P48730); assay: CSNK1D (CK1 delta) Kinase activity screen
[25] = target: Cyclin-dependent kinase 5/CDK5 activator 1 (Homo sapiens) (UniProt Q00535+Q15078); assay: CDK5/p25 Kinase activity screen; assay type: protein-complex assay
[26] = target: Cyclin-dependent kinase 1/cyclin B (Homo sapiens) (UniProt P06493+P14635+Q8WWL7+O95067); assay: CDK1/cyclin B Kinase activity screen; assay type: protein-complex assay
[27] = target: Dual specificity protein kinase CLK1 (Homo sapiens, UniProt P49759); assay: CLK1 Kinase activity screen
[28] = target: CDK7/Cyclin H/MNAT1 (Homo sapiens) (UniProt P51946+P50613+P51948); assay: CDK7/cyclin H/MNAT1 Kinase activity screen; assay type: protein-complex assay
[29] = target: Mitogen-activated protein kinase 1 (Homo sapiens) (UniProt P28482); assay: MAPK1 (ERK2) Kinase activity screen
[30] = target: PI3-kinase p110-alpha/p85-alpha (Homo sapiens) (UniProt P27986+P42336); assay: PIK3CA/PIK3R1 (p110 alpha/p85 alpha) Kinase activity screen; assay type: protein-complex assay
[31] = target: Tyrosine-protein kinase JAK2 (Homo sapiens) (UniProt O60674); assay: JAK2 Kinase activity screen
[32] = target: Focal adhesion kinase 1 (Homo sapiens) (UniProt Q05397); assay: PTK2 (FAK) Kinase activity screen
[33] = target: Dual specificity protein kinase CLK2 (Homo sapiens, UniProt P49760); assay: CLK2 Kinase activity screen
[34] = target: Serine/threonine-protein kinase Chk1 (Homo sapiens) (UniProt O14757); assay: CHEK1 (CHK1) Kinase activity screen
Serine/threonine-protein kinase Chk1 (Homo sapiens), sequence (O14757 whole entry): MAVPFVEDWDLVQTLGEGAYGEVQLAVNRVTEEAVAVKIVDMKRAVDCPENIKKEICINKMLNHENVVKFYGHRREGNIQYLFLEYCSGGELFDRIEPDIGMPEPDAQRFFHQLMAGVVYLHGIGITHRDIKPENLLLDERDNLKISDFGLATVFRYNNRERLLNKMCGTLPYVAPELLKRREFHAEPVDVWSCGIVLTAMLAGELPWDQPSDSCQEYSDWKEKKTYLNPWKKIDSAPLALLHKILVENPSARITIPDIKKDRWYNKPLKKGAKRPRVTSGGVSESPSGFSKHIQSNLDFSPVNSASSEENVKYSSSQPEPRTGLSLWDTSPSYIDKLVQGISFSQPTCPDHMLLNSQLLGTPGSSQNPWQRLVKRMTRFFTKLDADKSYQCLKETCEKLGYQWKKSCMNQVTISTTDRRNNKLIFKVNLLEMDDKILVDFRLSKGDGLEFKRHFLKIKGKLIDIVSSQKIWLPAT

[35] = target: Mitogen-activated protein kinase 3 (Homo sapiens) (UniProt P27361); assay: MAPK3 (ERK1) Kinase activity screen
[36] = target: Dual specificity mitogen-activated protein kinase kinase 2 (Homo sapiens) (UniProt P36507); assay: MAP2K2 (MEK2) Kinase activity screen
Dual specificity mitogen-activated protein kinase kinase 2 (Homo sapiens), sequence (P36507 whole entry): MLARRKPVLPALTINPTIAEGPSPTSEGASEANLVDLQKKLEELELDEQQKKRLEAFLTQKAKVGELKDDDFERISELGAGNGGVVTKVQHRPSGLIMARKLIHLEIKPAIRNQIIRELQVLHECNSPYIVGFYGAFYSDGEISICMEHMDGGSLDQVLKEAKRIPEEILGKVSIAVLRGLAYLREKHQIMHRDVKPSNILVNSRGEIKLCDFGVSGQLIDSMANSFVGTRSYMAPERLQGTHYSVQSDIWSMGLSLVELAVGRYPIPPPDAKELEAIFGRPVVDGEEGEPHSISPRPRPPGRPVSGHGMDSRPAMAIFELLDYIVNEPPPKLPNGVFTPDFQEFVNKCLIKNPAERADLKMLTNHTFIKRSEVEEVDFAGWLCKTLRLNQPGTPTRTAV

[37] = target: Death-associated protein kinase 1 (Homo sapiens) (UniProt P53355); assay: DAPK1 Kinase activity screen
[38] = Compound concentration 0.123 uM

Muscarinic acetylcholine receptor M1, sequence (P11229 whole entry): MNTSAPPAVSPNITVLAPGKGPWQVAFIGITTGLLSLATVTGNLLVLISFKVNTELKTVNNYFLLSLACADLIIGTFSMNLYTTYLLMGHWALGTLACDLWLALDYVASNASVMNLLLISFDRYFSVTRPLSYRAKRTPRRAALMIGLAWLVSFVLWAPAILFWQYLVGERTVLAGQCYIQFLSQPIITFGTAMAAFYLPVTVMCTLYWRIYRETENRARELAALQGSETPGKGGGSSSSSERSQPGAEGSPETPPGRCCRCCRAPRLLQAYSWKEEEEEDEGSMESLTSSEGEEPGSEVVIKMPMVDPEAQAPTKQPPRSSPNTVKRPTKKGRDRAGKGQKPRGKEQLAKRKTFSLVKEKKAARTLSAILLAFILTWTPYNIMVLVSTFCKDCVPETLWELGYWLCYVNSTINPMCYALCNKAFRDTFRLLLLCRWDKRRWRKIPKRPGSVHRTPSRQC

Ki ([1]; read-out: Ki): 2090 nM
Ki ([1]; read-out: pKi (converted)): 1950 nM
Ki (Mu-type opioid receptor): 4020 nM
Ki [2]: 2170 nM
Ki (D(1A) dopamine receptor; read-out: Ki): 1500 nM
Ki (D(1A) dopamine receptor; read-out: pKi (converted)): 1290 nM
inhibition [3]: 51.3%
inhibition [4]: 30.8%
Ki ([5]; read-out: Ki): 1530 nM
Ki ([5]; read-out: pKi (converted)): 1320 nM
Ki ([6]; read-out: Ki): 798 nM
Ki ([6]; read-out: pKi (converted)): 741 nM
Ki ([7]; read-out: Ki): 2490 nM
Ki ([7]; read-out: pKi (converted)): 2240 nM
Ki ([8]; read-out: Ki): 1070 nM
Ki ([8]; read-out: pKi (converted)): 1050 nM
SMILES: CN1CCN(C(=O)C(C)(C)c2ccc(C(=O)Nc3cn4cc(-c5cc(C(C)(C)C)cc(C(C)(C)C)c5)ccc4n3)cc2)CC1 [T3-CLK-N]

inhibition ([9]; Compound concentration 0.1 uM): 11.9%
inhibition ([9]; Compound concentration 1.0 uM): 24.3%
inhibition ([10]; Compound concentration 0.1 uM): 0.672%
inhibition ([10]; Compound concentration 1.0 uM): 0.93%
inhibition ([11]; Compound concentration 0.1 uM): 15.6%
inhibition ([11]; Compound concentration 1.0 uM): 11.3%
inhibition ([12]; Compound concentration 0.1 uM): -2%
inhibition ([12]; Compound concentration 1.0 uM): 0.493%
inhibition [13, 38]: 1.82%
inhibition ([13]; Compound concentration 1.11 uM): 5.16%
inhibition ([14]; Compound concentration 0.1 uM): 21.9%
inhibition ([14]; Compound concentration 1.0 uM): 24.2%
inhibition ([15]; Compound concentration 0.1 uM): -3.68%
inhibition ([15]; Compound concentration 1.0 uM): -0.398%
inhibition ([16]; Compound concentration 0.1 uM): -3.75%
inhibition ([16]; Compound concentration 1.0 uM): -2.73%
inhibition [17]: 10.9%
inhibition ([18]; Compound concentration 0.1 uM): -6.12%
inhibition ([18]; Compound concentration 1.0 uM): -4.71%
inhibition ([19]; Compound concentration 0.1 uM): -3.21%
inhibition ([19]; Compound concentration 1.0 uM): -3.11%
inhibition ([20]; Compound concentration 0.1 uM): 3.68%
inhibition ([20]; Compound concentration 1.0 uM): 2.12%
inhibition ([21]; Compound concentration 0.1 uM): 2.21%
inhibition ([21]; Compound concentration 1.0 uM): 0.698%
inhibition ([22]; Compound concentration 0.1 uM): 5.17%
inhibition ([22]; Compound concentration 1.0 uM): 9.37%
inhibition ([23]; Compound concentration 0.1 uM): 4.83%
inhibition ([23]; Compound concentration 1.0 uM): 4.09%
inhibition ([24]; Compound concentration 0.1 uM): -2.92%
inhibition ([24]; Compound concentration 1.0 uM): 4.31%
inhibition ([25]; Compound concentration 0.1 uM): 1.84%
inhibition ([25]; Compound concentration 1.0 uM): 0.79%
inhibition ([26]; Compound concentration 0.1 uM): 7.95%
inhibition ([26]; Compound concentration 1.0 uM): 7.1%
inhibition [27, 38]: 91.2%
inhibition ([27]; Compound concentration 1.11 uM): 99.1%
inhibition ([28]; Compound concentration 0.1 uM): 0.551%
inhibition ([28]; Compound concentration 1.0 uM): -3.41%
inhibition ([29]; Compound concentration 0.1 uM): 2.74%
inhibition ([29]; Compound concentration 1.0 uM): 4.01%
inhibition ([30]; Compound concentration 0.1 uM): 3.58%
inhibition ([30]; Compound concentration 1.0 uM): 3.6%
inhibition ([31]; Compound concentration 0.1 uM): -7.35%
inhibition ([31]; Compound concentration 1.0 uM): -6.29%
inhibition ([32]; Compound concentration 0.1 uM): -9.12%
inhibition ([32]; Compound concentration 1.0 uM): -7.35%
inhibition [33, 38]: 92.1%
inhibition ([33]; Compound concentration 1.11 uM): 100%
inhibition ([34]; Compound concentration 0.1 uM): 9.74%
inhibition ([34]; Compound concentration 1.0 uM): 18.4%
inhibition ([35]; Compound concentration 0.1 uM): 5.63%
inhibition ([35]; Compound concentration 1.0 uM): 6.05%
inhibition ([36]; Compound concentration 0.1 uM): 16.9%
inhibition ([36]; Compound concentration 1.0 uM): 13.8%
SMILES: CN1CCN(C(=O)C(C)(C)c2ccc(C(=O)Nc3cn4cc(-c5ccncc5)ccc4n3)cc2)CC1 [T3-CLK]
inhibition ([37]; Compound concentration 0.1 uM): -4.42%
inhibition ([37]; Compound concentration 1.0 uM): -6.43%
